One experiment addresses T1, AKT1/PKBα (Homo sapiens, UniProt P31749).
T1 construct: purchased
Kind of experiment: Akt1 enzyme inhibitory activity, AKT1/PKBα KinEASE FP Fluorescein Green Assay. In kind it is biochemical. As to conditions: fluorescence polarization kit assay; read-out: Akt1 IC50 (grade). On the procedure:
(§1) Compound AZD5363 (NCT02208375, NCT02208375, NCT01625286), which have entered the clinical phase II study, was used as a positive control, and the compound was assayed against common tumour cell lines (human ovarian cancer cell line OVCAR-8 and human colon cancer cell line HCT-116) by MTT assay, at the same time, the akt1 enzyme inhibitory activity (IC50) was evaluated using a commercial Akt1 kit.
2) Test method for the inhibitory activity of the compound of the present invention against Akt1 enzyme:
The AKT1/PKBα KinEASE™ FP Fluorescein Green Assay (Kinase Green Fluorescence Detection System) was used to detect the inhibitory activity of the compound on AKT1/PKBα.
Fluorescence polarization detection protein kinase B employs the principle of a competitive reaction: a fluorescently labeled phosphorylated tracer and an unlabeled phosphorylated product produced by the reaction of protein kinase B will compete with the anti-serine antibody for binding. In a reaction mixture […], when a part of the fluorescent tracer binds to the antibody, it causes a higher polarization value. However, in the reaction solution mixture containing the phosphorylated product, less tracer binds to the antibody (the fluorescent tracer was replaced from the antibody) and the emitted signal was depolarized. Therefore, the change in polarization was directly related to the activity of protein kinase B in the reaction.
The compound of the present invention and the positive control AZD5363 were dissolved in dimethyl sulfoxide (DMSO) and diluted to a concentration of 50 μM. At room temperature, 0.25 μl of the compound sample and the positive control at a concentration of 50 μM were taken and added to the 384-well plate, and three parallel wells were set for each sample, and then 10 μl of STK Substrate 3, Working Solution, 5 μl AKT1/PKBα Working Solution, 10 μl ATP Working Solution were added to each sample well plate with vibrating gently and shaking for a few minutes. The reaction starts after 10 μl of ATP Working Solution was added to the well, and the reaction was timed at room temperature for 1 hour. After one hour, 5 μl of STK Stop Mix and 5 μl of STK Antibody Mix were added to each well respectively to stop the reaction. After the addition completes, it was allowed to stand at room temperature for four hours, and the polarization value of the sample was detected by the fluorescence polarization of the microplate reader (it was effective to detect its signal within 24 hours), and the inhibition rate of the compound was calculated by the polarization value, and then IC50 was calculated.
Four sets of controls were set in the experiment, namely Buffer Control Wells, Tracer Control Wells, No Enzyme Wells, and a blank dimethyl sulfoxide control. The resulting data was used to calculate the inhibition rate.
The activity of the compound was divided into three grades according to the size of the IC50 of the Akt inhibitory activity: “+++”, 1 nM<IC50<10 nM; “++”, 10 nM<IC50<50 nM; “+”, 50 nM<IC50.
A general note: In fluorescence polarisation assays a small probe gives low polarisation when free and higher when bound to something large.

The next experiment has as its system HGC27. Nature of the experiment: Tumour cell proliferation inhibition, MTT assay, HGC27. Type of experiment: cell-based, human.
A further experiment concerns MCF-7. Nature of the experiment: Tumour cell proliferation inhibition, MTT assay, MCF-7. In kind it is cell-based, human. (In general: Tetrazolium dyes change colour on reduction, which living cells bring about.)
A further experiment relates to 786-O. Kind of experiment: Tumour cell proliferation inhibition, MTT assay, 786-O. Type of experiment: cell-based, human.
In a further experiment the test system is HCT-116. Kind of experiment: Tumour cell proliferation inhibition, MTT assay, HCT-116. Type of experiment: cell-based, human. On the procedure:
as §1
1) The pharmacological test method for the tumour cell proliferation inhibiting activity of the compound of the present invention was as follows:
The first was the determination of in vitro tumour growth inhibitory activity and the preliminary structure-activity relationship study, and different solid tumour cell lines were used to determine the in vitro antitumour activity of the synthesized compounds.
Experimental materials: cell lines: human ovarian cancer cells (OVCAR8), colon adenocarcinoma cells (HCT-116),
Medium: OVCAR8: RPMI 1640+fetal calf serum
Drug preparation method: dissolving the drug in DMSO to make a 50 mM of stock solution, and diluting it to a certain ratio to obtain 5 different concentrations.
Tumour Cells being Cultured In Vitro:
The selected tumour cells were incubated in a, 5% of CO2 cell incubator at 37° C., and passaged until the cell density was 70 to 90% (the adherent cells were passaged with Duck's EDTA) and used for subsequent experiments.
The compound was dissolved in dimethyl sulfoxide (DMSO), diluted, and tumour cells were seeded into 4000 cells/200 μL/well in 96-well plates, and 1 μL of compound was added to each well to a final concentration of 50 μM, 10 μM, 2 μM, and 0.4 μM. 0.08 μM were incubated in a, 5% of CO2 cell incubator at 37° C. for 72 hours with DMSO (1%) as a blank control.
The calculation formula of the cell inhibition rate is: cell inhibition rate %=(control group OD value−drug group OD value)/control cell OD value×100%, and the half inhibition concentration (IC50) was determined by the Bliss method.

For a further experiment, the system named is CEM-C1. Nature of the experiment: Tumour cell proliferation inhibition, MTT assay, CEM-C1. In kind it is cell-based, human.
For experiment [1], the system named is human gastric cancer HGC27 nude mice xenografts. Nature of the experiment: In vivo antitumour activity, human gastric cancer HGC27 nude mice xenografts. Particulars: HGC27 xenograft, 50 mg/kg intragastric once a day. On the procedure:
A Sixty-Fifth Embodiment: In Vivo Antitumour Activity of Compounds
1) Establishment of a nude mouse xenograft model: 1×10^7 test tumour cells were injected into the armpit of nude mice, after three generations, HGC27 mouse tumour blocks were dissected and placed in a glass dish containing physiological saline, after the necrotic area was removed by incision, the tumour mass was cut into 1-2 mm^3 and inserted into the left axilla of the nude mouse with a trocar.
2) Animal grouping and drug delivery arrangements: after the tumour grows to an average volume of 100-300 mm^3, 20 mice were randomly grouped according to the tumour volume, and the above test animals were given the corresponding test substances by intragastric administration at a dose of 10 mL/kg with once a day.
3) Data measurement and statistics: The tumour volume was weighed and measured twice and dosing period was 21 days. On the 22nd day, after the body weight was weighed and the tumour volume was measured, the nude mice were sacrificed and the tumours were weighed to calculate the relative tumour volume (RTV), relative tumour growth rate (T/C) and tumour inhibition percentage (IR) for statistical testing. The calculation formula was as follows: (a) TV (tumour volume)=½×a×b^2, wherein a and b represent the length and width of the tumour respectively, (b) RTV (relative tumour volume)=Vt/V0, Where V0 is the tumour volume measured at the time of group administration (i.e. d0), Vt is the tumour volume at each measurement, (c) T/C (%)=TRTV/CRTV×100%, wherein TRTV is the RTV of treatment group, CRTV is the RTV of the solvent control group, (d) IR (%)=(1−TWt/TWc)×100%, wherein TWt is the tumour weight of the treatment group, and TWc is the tumour weight of the solvent control group.
(In general: Xenograft models place foreign cells or tissue in a host animal.)

The record followed here is patent US11319300B2, “Polyfluoro-substituted aromatic heterocyclic derivative, pharmaceutical composition containing same, and applications thereof” (ZHEJIANG UNIVERSITY, priority 2017, dated 2022).

Structures can show the parent of a compound that is named as a salt. Marks after values point to notes of the source that are not given here.

T1 sequence (P31749 whole entry): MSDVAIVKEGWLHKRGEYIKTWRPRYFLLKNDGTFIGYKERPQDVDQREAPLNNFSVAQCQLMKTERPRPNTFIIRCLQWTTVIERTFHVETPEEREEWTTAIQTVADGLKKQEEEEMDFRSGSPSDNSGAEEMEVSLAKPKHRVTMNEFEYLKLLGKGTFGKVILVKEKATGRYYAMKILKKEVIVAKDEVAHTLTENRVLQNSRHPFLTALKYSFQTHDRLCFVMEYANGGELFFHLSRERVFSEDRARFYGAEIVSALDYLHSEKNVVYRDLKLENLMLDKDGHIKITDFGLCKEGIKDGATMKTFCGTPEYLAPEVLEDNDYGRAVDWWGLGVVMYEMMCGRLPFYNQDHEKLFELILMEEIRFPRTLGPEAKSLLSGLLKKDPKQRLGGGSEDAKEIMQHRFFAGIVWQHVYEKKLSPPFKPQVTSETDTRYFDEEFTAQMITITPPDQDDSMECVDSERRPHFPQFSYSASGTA

Take `Cn1nccc1-c1ccc(C(=O)N[C@@H]2CNCC[C@H]2c2ccc(F)c(F)c2)c(F)c1` (racemic) [VII-32]: the IC50 on AKT1/PKBα is 1 to 10 nM; with HGC27 (Homo sapiens, HGC-27, 72 h), 60 nM; with MCF-7 (Homo sapiens, MCF7, 72 h) it was 1980 nM; in the experiment with 786-O (Homo sapiens, 786-0, 72 h), 910 nM; in the experiment on HCT-116 (Homo sapiens, HCT-116, 72 h), 980 nM; with CEM-C1 (Homo sapiens, CEM/C1, 72 h) it was 70 nM.
With `Cn1ncc(F)c1-c1ccc(C(=O)N[C@@H]2CNCC[C@H]2c2ccc(F)c(F)c2)c(F)c1` [VII-7], the IC50 at AKT1/PKBα is 10 to 50 nM; in the experiment with HGC27 (Homo sapiens, HGC-27, 72 h), 60 nM; in the experiment with MCF-7 (Homo sapiens, MCF7, 72 h), 2840 nM; in the experiment on 786-O (Homo sapiens, 786-0, 72 h), 990 nM; with HCT-116 (Homo sapiens, HCT-116, 72 h) it was 2390 nM; in the experiment on CEM-C1 (Homo sapiens, CEM/C1, 72 h), 90 nM.
Regarding `Cn1nccc1-c1ccc(C(=O)N[C@@H]2CNCC[C@H]2c2ccc(F)c(F)c2)c(F)c1.O=C(O)C[C@H](O)C(=O)O` [VII-30, L-malate], the IC50 was 1 to 10 nM at AKT1/PKBα; 30 nM with HGC27 (72 hours, L-malate); 1580 nM with MCF-7 (72 hours, L-malate); 550 nM in the experiment on 786-O (Homo sapiens, 786-0, 72 h); 1990 nM with HCT-116 (72 hours, L-malate); 80 nM in the experiment on CEM-C1 (Homo sapiens, CEM/C1, 72 h).
Regarding `Cn1nccc1-c1ccc(C(=O)N[C@@H]2CNCC[C@H]2c2ccc(F)c(F)c2)c(F)c1` [VII-31, D-malate], the IC50 is 1 to 10 nM at AKT1/PKBα; 10 nM with HGC27 (72 hours, D-malate); 2960 nM with MCF-7 (72 hours, D-malate); 650 nM in the experiment on 786-O (72 hours, D-malate); 1520 nM in the experiment with HCT-116 (72 hours, D-malate); 100 nM in the experiment with CEM-C1 (72 hours, D-malate).
In the case of `Cn1nccc1-c1ccc(C(=O)N[C@@H]2CNCC[C@H]2c2ccc(F)c(F)c2)c(F)c1.O=C(O)C(O)C(O)C(=O)O` [VII-33, L-tartrate], the IC50 at AKT1/PKBα is 1 to 10 nM; in the experiment with HGC27 (72 hours, L-tartrate), 40 nM; in the experiment with MCF-7 (72 hours, L-tartrate), 2250 nM; in the experiment on 786-O (72 hours, L-tartrate) it was 820 nM; with HCT-116 (72 hours, L-tartrate), 3100 nM; with CEM-C1 (72 hours, L-tartrate) it was 90 nM.
Regarding `Cn1nccc1-c1ccc(C(=O)N[C@@H]2CNCC[C@H]2c2ccc(F)c(F)c2)c(F)c1` [VII-34, D-tartrate], the IC50 on AKT1/PKBα is 1 to 10 nM; with HGC27 (72 hours, D-tartrate) it was 30 nM; in the experiment with MCF-7 (72 hours, D-tartrate) it was 3090 nM; with 786-O (72 hours, D-tartrate) it was 1060 nM; in the experiment on HCT-116 (72 hours, D-tartrate), 2150 nM; with CEM-C1 (72 hours, D-tartrate), 130 nM.
Regarding `Cn1nccc1-c1ccc(C(=O)N[C@@H]2CNCC[C@H]2c2ccc(F)c(F)c2)c(F)c1` [VII-37, citrate], the IC50 is 1 to 10 nM on AKT1/PKBα; 50 nM in the experiment on HGC27 (72 hours, citrate); 1360 nM in the experiment with MCF-7 (72 hours, citrate); 670 nM in the experiment with 786-O (72 hours, citrate); 1060 nM in the experiment on HCT-116 (72 hours, citrate); 110 nM in the experiment with CEM-C1 (72 hours, citrate).
Regarding `Cn1nccc1-c1ccc(C(=O)N[C@@H]2CNCC[C@H]2c2ccc(F)c(F)c2)cc1` [drawing 111, reference compound], the IC50 on AKT1/PKBα was 10 to 50 nM; in the experiment on HGC27 (Homo sapiens, HGC-27, 72 h), 190 nM; with MCF-7 (Homo sapiens, MCF7, 72 h) it was 10600 nM; in the experiment on 786-O (Homo sapiens, 786-0, 72 h) it was 2060 nM; with HCT-116 (Homo sapiens, HCT-116, 72 h) it was 10500 nM; with CEM-C1 (Homo sapiens, CEM/C1, 72 h), 620 nM.
For `Cn1nccc1-c1ccc(C(=O)N[C@@H]2CNCC[C@H]2c2ccc(F)c(F)c2)cc1` [drawing 115, reference compound], in experiment [1], the RTV was found to be 22.60 ± 12.41 and the “T/C(%)” value was 53.75%. Moreover, in experiment [1] (D1 (start)), the “Tumour volume D1” value is on record as 216 ± 98 mm^3. For the same molecule, in experiment [1] (D22), the “Tumour volume D22” value is on record as 1650 ± 720* mm^3.
As for `Cn1ncc(Cl)c1-c1ccc(C(=O)N[C@@H]2CNCC[C@H]2c2ccc(F)c(F)c2)cc1F` [reference compound], the IC50 is 10 to 50 nM at AKT1/PKBα; 120 nM in the experiment on HGC27 (Homo sapiens, HGC-27, 72 h); 6320 nM with MCF-7 (Homo sapiens, MCF7, 72 h); 1280 nM in the experiment with 786-O (Homo sapiens, 786-0, 72 h); 5860 nM with HCT-116 (Homo sapiens, HCT-116, 72 h); 570 nM in the experiment on CEM-C1 (Homo sapiens, CEM/C1, 72 h).
Regarding `Cn1ncc(Cl)c1-c1ccc(C(=O)N[C@@H]2CNCC[C@H]2c2ccc(Cl)cc2)c(C(F)(F)F)c1` [reference compound], the IC50 at AKT1/PKBα is 1 to 10 nM; in the experiment with HGC27 (Homo sapiens, HGC-27, 72 h) it was 180 nM; with MCF-7 (Homo sapiens, MCF7, 72 h), 5130 nM; in the experiment with 786-O (Homo sapiens, 786-0, 72 h), 2990 nM; in the experiment on HCT-116 (Homo sapiens, HCT-116, 72 h) it was 6150 nM; in the experiment on CEM-C1 (Homo sapiens, CEM/C1, 72 h) it was 440 nM.

By IC50 is commonly meant the concentration at which inhibition is half-maximal.
